The text below walks through data of US20220009914A1, “Analogs of Nitrofuran Antibiotics to Combat Resistance” (The Trustees of Indiana University, priority 2020, published 2022).

Each structure is given as a SMILES string.

The target in one assay is T1, E. coli GroEL (Escherichia coli, UniProt P0A6F5).
T1 construct: made in house; host or cells: NEB 5-alpha E. coli
Nature of the assay: GroEL-mediated ATPase assay. It is filed as biochemical. How it is done: Evaluating compounds for inhibition in the GroEL-mediated ATPase assay. All compounds were evaluated for inhibiting E. coli GroEL-mediated ATPase activity as per our previously reported procedure although employing only GroEL in solution and not containing GroES or denatured MDH. Evaluating compounds for inhibition in the GroEL-mediated ATPase assay.
Reagent preparation: For this assay, four primary reagent solutions were prepared: 1) GroEL protein solution; 2) ATP initiation solution; 3) EDTA quench solution; 4) malachite green reporter solution. The GroEL protein solution consisted of 100 nM of GroEL in folding buffer (50 mM Tris-HCl, pH 7.4, 50 mM KCl, 10 mM MgCl2, and 1 mM DTT), which was prepared immediately prior to dispensing into the assay plates. For the ATP initiation solution, ATP solid was diluted into folding buffer to a final concentration of 2 mM. Quench solution contained 300 mM EDTA (pH 8.0). The malachite green reporter solution contained 0.034% w/v malachite green, 1.04% w/v ammonium molybdate, 1% Tween-20, and 1 M HCl dissolved in H2O.
Assay Protocol: First, 10 μL aliquots of the GroEL protein solution were dispensed into clear, flat-bottom 384-well polystyrene plates. […] After incubating for 45 minutes at 37° C., 10 μL of the EDTA quench solution was added to quench the reaction cycle. Then, 60 μL of the malachite green reporter solution was added and the plates were incubated at room temperature for 10 min. The absorbance of the malachite green-phosphate complex was measured at 600 nm using a Molecular Devices SpectraMax Plus384 microplate reader. A second set of baseline control plates were prepared analogously, but without GroEL protein solution, to correct for possible interference from compound absorbance or turbidity. […] Results presented represent the averages of IC50 values obtained from at least four replicates.
Evaluating analogs for inhibiting GroEL-mediated ATPase activity. […] Thus, we further tested analogs in a well-established GroEL ATPase assay that employed malachite green to monitor inorganic phosphate liberated as GroEL hydrolyzed ATP. Briefly, a solution of GroEL was incubated with test compounds (8-point, 3-fold dilution series) and the assay was initiated by addition of ATP. After incubating for 45 minutes, the ATPase reaction was quenched by the addition of EDTA. Malachite green was then added to the assay to bind and detect free phosphates in solution (absorbance detection at k=600 nm). If analogs inhibited ATPase activity, then there would be no free phosphates for malachite green to bind, leading to minimal absorbance at 600 nm.

The next assay addresses T2, native MDH (Sus scrofa, UniProt P00346).
T2 sequence (P00346 25-338): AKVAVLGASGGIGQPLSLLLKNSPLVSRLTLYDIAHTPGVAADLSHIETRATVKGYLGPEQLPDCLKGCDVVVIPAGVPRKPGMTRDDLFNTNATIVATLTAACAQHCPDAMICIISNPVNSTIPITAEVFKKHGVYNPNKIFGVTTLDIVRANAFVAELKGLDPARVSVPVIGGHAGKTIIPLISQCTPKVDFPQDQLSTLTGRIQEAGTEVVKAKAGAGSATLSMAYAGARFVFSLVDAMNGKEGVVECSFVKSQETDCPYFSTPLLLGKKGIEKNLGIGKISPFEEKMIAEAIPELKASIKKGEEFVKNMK
The assay can be described thus: native MDH activity counter-screen in the presence of E. coli NfsB nitroreductase. It counts as biochemical, pig. To be noted: with E. coli NfsB nitroreductase; read-out: Native MDH Activity w/NfsB IC50. How it is done:
Evaluating compounds for inhibition in the GroEL/ES-mediated dMDH refolding assay and native MDH activity counter-screen in the presence of E. coli NfsB nitroreductase. These assays were performed nearly identically to those mentioned above, but with a couple distinct modifications. […] The remainder of the assay was conducted as in our standard protocol where no NfsB nitroreductase was present. […] Results presented represent the averages of IC50 values obtained from at least four replicates in each assay.
On the technique in general: A counterscreen serves to expose hits that act by an unwanted route or on another target.

Another assay addresses T3, E. coli GroEL/ES (Escherichia coli, UniProt P0A6F5).
T3 construct: made in house; host or cells: GroEL in NEB 5-alpha E. coli; GroES in E. coli BL21 (DE3)
The assay can be described thus: GroEL/ES-mediated dMDH refolding assay. It is filed as biochemical. How it is done: Evaluating compounds for inhibition in the GroEL/ES-mediated dMDH refolding assay. All compounds were evaluated for inhibiting E. coli GroEL/ES-mediated refolding of the denatured MDH reporter enzyme. Reagent preparation: For these assays, four primary reagent stocks were prepared: 1) GroEL/ES-dMDH binary complex stock; 2) ATP initiation stock; 3) EDTA quench stock; 4) MDH enzymatic assay stock. Denatured MDH (dMDH) was prepared by 2-fold dilution of MDH (5 mg/ml, soluble pig heart MDH from Roche, product #10127248001) with denaturant buffer (7 M guanidine-HCl, 200 mM Tris, pH 7.4, and 50 mM DTT). MDH was completely denatured by incubating at room temperature for >45 min. The binary complex solutions were prepared by slowly adding the dMDH stock to a stirring stock with GroEL and GroES in folding buffer (50 mM Tris-HCl, pH 7.4, 50 mM KCl, 10 mM MgC2, and 1 mM DTT). […] For the ATP initiation stock, ATP solid was diluted into folding buffer to a final concentration of 2.5 mM. Quench solution contained 600 mM EDTA (pH 8.0). The MDH enzymatic assay stock consisted of 20 mM sodium mesoxalate and 1.6 mM NADH in reaction buffer (50 mM Tris-HCl, pH 7.4, 50 mM KCl, and 1 mM DTT).
Assay Protocol: First, 30 μL aliquots of the GroEL/ES-dMDH binary complex stocks were dispensed into clear, 384-well polystyrene plates. […] The chaperonin-mediated refolding cycles were initiated by addition of 20 μL of ATP stock (reagent concentrations during refolding cycle: 50 nM GroEL, 60 nM GroES, 12 nM dMDH, 1 mM ATP, and compounds of 100 μM to 46 nM, 3-fold dilution series) and the refolding reactions were incubated at 37° C. […] Next, the assay was quenched by addition of 10 μL of the EDTA stock to give a final concentration of 100 mM in the wells. […] A340 nm measurements were recorded at 0.5 minutes (start point) and at successive time points until the amount of NADH consumed reached ˜90% (end point, generally between 20-35 minutes).
Evaluating analogs for inhibiting GroEL/ES-mediated substrate refolding functions. […] We first evaluated all test compounds in our standard GroEL/ES-mediated refolding assays that employ either malate dehydrogenase (MDH) or rhodanese (Rho) as the denatured substrate reporter enzymes. When denatured, these enzymes are efficiently folded by GroEL/ES in the absence of inhibitors, and thus act as reporters to determine the degree of inhibition against the bacterial chaperonin system. Inhibition was examined in the presence of these two orthogonal substrates in order to support that GroEL/ES inhibitors were on-target. To further support on-target effects against GroEL/ES, we counter-screened for inhibition of the native MDH and Rho enzymatic reporter reactions, where test compounds were added after the denatured MDH and Rho substrate enzymes were completely refolded by GroEL/ES.

T1 sequence (P0A6F5 2-548): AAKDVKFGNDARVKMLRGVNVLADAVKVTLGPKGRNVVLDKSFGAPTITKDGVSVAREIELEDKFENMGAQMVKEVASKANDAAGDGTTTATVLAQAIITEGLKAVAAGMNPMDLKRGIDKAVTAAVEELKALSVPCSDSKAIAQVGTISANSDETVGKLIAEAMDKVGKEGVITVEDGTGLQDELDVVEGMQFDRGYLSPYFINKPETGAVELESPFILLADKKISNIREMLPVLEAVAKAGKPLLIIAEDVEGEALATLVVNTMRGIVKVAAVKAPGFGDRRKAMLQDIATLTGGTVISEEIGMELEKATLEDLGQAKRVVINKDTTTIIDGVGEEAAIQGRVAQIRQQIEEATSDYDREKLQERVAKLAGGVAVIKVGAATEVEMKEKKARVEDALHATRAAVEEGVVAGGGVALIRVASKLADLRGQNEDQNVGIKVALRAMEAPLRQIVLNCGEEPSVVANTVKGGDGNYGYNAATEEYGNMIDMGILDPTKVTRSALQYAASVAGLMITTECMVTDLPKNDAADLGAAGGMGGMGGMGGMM
T3 sequence (P0A6F5 2-548): as above

With `COc1ccc(C(=O)N/N=C/c2ccco2)cc1` [Compound 39, N′-(furan-2-ylmethylene)-4-methoxybenzohydrazide], the IC50 on E. coli GroEL was > 250 µM; on native MDH, > 56 µM; on E. coli GroEL/ES, > 100 µM.
In the same order, the values of `O=C(N/N=C/c1ccc(O)c2ncccc12)c1ccc(NS(=O)(=O)c2ccc(Br)cc2)cc1` [Compound 14, 4-bromo-N-(4-(2-((8-hydroxyquinolin-5-yl)methylene)hydrazine-1-carbonyl)phenyl)benzenesulfonamide] are > 250 µM, > 56 µM and 14 µM.
`O=C(N/N=C/c1ccccc1)c1ccccc1` [Compound 38, N′-benzylidenebenzohydrazide]: the IC50 was > 250 µM against E. coli GroEL, > 56 µM on native MDH and > 100 µM at E. coli GroEL/ES.
In the same order, the values of `O=C(N/N=C/c1ccc([N+](=O)[O-])o1)c1cccc2ccccc12` [Compound 22, N′-((5-nitrofuran-2-yl)methylene)-1-naphthohydrazide] are > 250 µM, > 56 µM and 82 µM.
In the same order, the values of `O=C1CN(/N=C/c2ccc(O)c3ncccc23)C(=O)N1` [Compound 2, 1-(((8-hydroxyquinolin-5-yl)methylene)amino)imidazolidine-2,4-dione] are > 250 µM, > 56 µM and > 100 µM.
On the same counts, the results for `COc1ccc(C(=O)NN)cc1` [Compound 42, reference compound] are > 250 µM, > 56 µM and > 100 µM.
`O=C(N/N=C/c1ccc(O)cc1)c1ccccc1` [Compound 36, N′-(4-hydroxybenzylidene)benzohydrazide]: the figures for the IC50 against E. coli GroEL, at native MDH and at E. coli GroEL/ES were > 250 µM, > 56 µM and > 100 µM, respectively.
As to `O=C(N/N=C/c1ccc(O)c2ncccc12)c1ccccc1Oc1ccccc1` [Compound 10, N′-((8-hydroxyquinolin-5-yl)methylene)-2-phenoxybenzohydrazide], the IC50 was > 250 µM against E. coli GroEL, > 56 µM at native MDH and 15 µM on E. coli GroEL/ES.
